Key:
MST3 = MST3 (Homo sapiens (Human), UniProt Q9Y6E0); assay: KINOMEscan; assay type: binding; details: 1 uM
PRKX = PRKX (Homo sapiens (Human), UniProt P51817); assay: KINOMEscan; assay type: binding; details: 1 uM
EPHB3 = EPHB3 (Homo sapiens (Human), UniProt P54753); assay: KINOMEscan; assay type: binding; details: 1 uM
BMPR1A = BMPR1A (Homo sapiens (Human), UniProt P36894); assay: KINOMEscan; assay type: binding; details: 1 uM
CLK3 = CLK3 (Homo sapiens (Human), UniProt P49761); assay: KINOMEscan; assay type: binding; details: 1 uM
[1] = target: EGFR (L747-E749del, A750P) (Homo sapiens (Human), UniProt P00533, A750P/DEL747-749); assay: KINOMEscan; assay type: binding; details: 1 uM
CLK2 = CLK2 (Homo sapiens (Human), UniProt P49760); assay: KINOMEscan; assay type: binding; details: 1 uM
LCK = LCK (Homo sapiens (Human), UniProt P06239); assay: KINOMEscan; assay type: binding; details: 1 uM
TGFBR2 = TGFBR2 (Homo sapiens (Human), UniProt P37173); assay: KINOMEscan; assay type: binding; details: 1 uM
YSK1 = YSK1 (Homo sapiens (Human), UniProt O00506); assay: KINOMEscan; assay type: binding; details: 1 uM
CAMK2G = CAMK2G (Homo sapiens (Human), UniProt Q13555); assay: KINOMEscan; assay type: binding; details: 1 uM
TGFBR1 = TGFBR1 (Homo sapiens (Human), UniProt P36897); assay: KINOMEscan; assay type: binding; details: 1 uM
SIK1 = SIK1 (Homo sapiens (Human), UniProt P57059); assay: Percent activity against SIK1 at 1 μM; assay type: biochemical
[2] = target: RSK3 (Kin.Dom.2-C-terminal) (Homo sapiens (Human), UniProt Q15349); assay: KINOMEscan; assay type: binding; details: 1 uM
MAP4K2 = MAP4K2 (Homo sapiens (Human), UniProt Q12851); assay: KINOMEscan; assay type: binding; details: 1 uM
ALK = ALK (Homo sapiens (Human), UniProt Q9UM73); assay: KINOMEscan; assay type: binding; details: 1 uM
CDKL3 = CDKL3 (Homo sapiens (Human), UniProt Q8IVW4); assay: KINOMEscan; assay type: binding; details: 1 uM
IRAK1 = IRAK1 (Homo sapiens (Human), UniProt P51617); assay: KINOMEscan; assay type: binding; details: 1 uM
TEC = TEC (Homo sapiens (Human), UniProt P42680); assay: KINOMEscan; assay type: binding; details: 1 uM
SRC = SRC (Homo sapiens (Human), UniProt P12931); assay: KINOMEscan; assay type: binding; details: 1 uM
ERK2 = ERK2 (Homo sapiens (Human), UniProt P28482); assay: KINOMEscan; assay type: binding; details: 1 uM
DAPK1 = DAPK1 (Homo sapiens (Human), UniProt P53355); assay: KINOMEscan; assay type: binding; details: 1 uM
PIK3CA (E545K) = PIK3CA (E545K) (Homo sapiens (Human), UniProt P42336, E545K); assay: KINOMEscan; assay type: binding; details: 1 uM
BRSK2 = BRSK2 (Homo sapiens (Human), UniProt Q8IWQ3); assay: KINOMEscan; assay type: binding; details: 1 uM
ABL1-nonphosphorylated = ABL1-nonphosphorylated (Homo sapiens (Human), UniProt P00519); assay: KINOMEscan; assay type: binding; details: 1 uM
GRK7 = GRK7 (Homo sapiens (Human), UniProt Q8WTQ7); assay: KINOMEscan; assay type: binding; details: 1 uM
TRKC = TRKC (Homo sapiens (Human), UniProt Q16288); assay: KINOMEscan; assay type: binding; details: 1 uM
p38-delta = p38-delta (Homo sapiens (Human), UniProt O15264); assay: KINOMEscan; assay type: binding; details: 1 uM
FAK = FAK (Homo sapiens (Human), UniProt Q05397); assay: KINOMEscan; assay type: binding; details: 1 uM
CDKL2 = CDKL2 (Homo sapiens (Human), UniProt Q92772); assay: KINOMEscan; assay type: binding; details: 1 uM
NEK5 = NEK5 (Homo sapiens (Human), UniProt Q6P3R8); assay: KINOMEscan; assay type: binding; details: 1 uM
IKK-alpha = IKK-alpha (Homo sapiens (Human), UniProt O15111); assay: KINOMEscan; assay type: binding; details: 1 uM
EPHB4 = EPHB4 (Homo sapiens (Human), UniProt P54760); assay: KINOMEscan; assay type: binding; details: 1 uM
PCTK2 = PCTK2 (Homo sapiens (Human), UniProt Q00537); assay: KINOMEscan; assay type: binding; details: 1 uM
WNK1 = WNK1 (Homo sapiens (Human), UniProt Q9H4A3); assay: KINOMEscan; assay type: binding; details: 1 uM
PYK2 = PYK2 (Homo sapiens (Human), UniProt Q14289); assay: KINOMEscan; assay type: binding; details: 1 uM
MEK1 = MEK1 (Homo sapiens (Human), UniProt Q02750); assay: KINOMEscan; assay type: binding; details: 1 uM
MAST1 = MAST1 (Homo sapiens (Human), UniProt Q9Y2H9); assay: KINOMEscan; assay type: binding; details: 1 uM
PIK3CA (H1047L) = PIK3CA (H1047L) (Homo sapiens (Human), UniProt P42336, H1047L); assay: KINOMEscan; assay type: binding; details: 1 uM
FLT3 (K663Q) = FLT3 (K663Q) (Homo sapiens (Human), UniProt P36888, K663Q); assay: KINOMEscan; assay type: binding; details: 1 uM
BMX = BMX (Homo sapiens (Human), UniProt P51813); assay: KINOMEscan; assay type: binding; details: 1 uM

Chain of SIK1 (P57059 whole entry): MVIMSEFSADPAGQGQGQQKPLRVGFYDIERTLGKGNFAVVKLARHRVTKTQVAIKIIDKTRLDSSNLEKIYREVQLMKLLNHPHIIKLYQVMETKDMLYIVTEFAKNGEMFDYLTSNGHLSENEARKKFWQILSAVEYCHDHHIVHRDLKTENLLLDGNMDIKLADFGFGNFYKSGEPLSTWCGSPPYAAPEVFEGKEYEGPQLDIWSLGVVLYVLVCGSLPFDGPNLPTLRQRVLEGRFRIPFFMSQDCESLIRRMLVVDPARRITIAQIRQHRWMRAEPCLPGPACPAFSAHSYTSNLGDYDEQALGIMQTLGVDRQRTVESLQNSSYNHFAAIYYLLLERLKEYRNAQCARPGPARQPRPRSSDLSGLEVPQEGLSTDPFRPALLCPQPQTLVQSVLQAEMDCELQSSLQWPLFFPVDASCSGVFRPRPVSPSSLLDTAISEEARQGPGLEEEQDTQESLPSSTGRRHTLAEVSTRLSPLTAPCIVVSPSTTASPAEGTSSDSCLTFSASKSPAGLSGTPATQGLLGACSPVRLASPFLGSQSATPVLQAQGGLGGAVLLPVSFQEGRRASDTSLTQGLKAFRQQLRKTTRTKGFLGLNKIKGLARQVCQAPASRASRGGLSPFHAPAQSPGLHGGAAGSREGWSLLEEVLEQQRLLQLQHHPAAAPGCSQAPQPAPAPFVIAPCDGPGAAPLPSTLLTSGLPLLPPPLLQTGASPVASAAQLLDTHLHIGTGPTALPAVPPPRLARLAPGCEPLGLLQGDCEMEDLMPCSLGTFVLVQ
Chain of BRSK2 (Q8IWQ3 whole entry): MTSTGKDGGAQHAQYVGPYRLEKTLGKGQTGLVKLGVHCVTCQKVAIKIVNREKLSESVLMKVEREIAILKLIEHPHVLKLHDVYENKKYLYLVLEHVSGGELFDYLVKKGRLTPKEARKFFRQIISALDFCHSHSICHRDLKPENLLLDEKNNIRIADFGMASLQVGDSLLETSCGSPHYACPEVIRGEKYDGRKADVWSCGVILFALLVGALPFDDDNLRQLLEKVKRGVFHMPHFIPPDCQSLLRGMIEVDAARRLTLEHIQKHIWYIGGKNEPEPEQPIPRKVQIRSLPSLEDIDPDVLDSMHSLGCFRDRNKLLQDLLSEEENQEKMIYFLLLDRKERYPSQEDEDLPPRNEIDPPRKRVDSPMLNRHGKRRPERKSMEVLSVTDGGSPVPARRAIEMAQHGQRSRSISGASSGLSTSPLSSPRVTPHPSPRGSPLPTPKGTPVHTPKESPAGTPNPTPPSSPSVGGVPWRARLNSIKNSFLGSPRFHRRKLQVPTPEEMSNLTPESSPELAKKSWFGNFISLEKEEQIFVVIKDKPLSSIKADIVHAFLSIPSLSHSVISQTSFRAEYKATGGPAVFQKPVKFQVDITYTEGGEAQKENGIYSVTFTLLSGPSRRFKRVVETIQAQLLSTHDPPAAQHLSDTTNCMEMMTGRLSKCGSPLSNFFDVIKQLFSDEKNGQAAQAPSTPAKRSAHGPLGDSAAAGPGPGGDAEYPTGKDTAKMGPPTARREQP
Chain of PYK2 (Q14289 whole entry): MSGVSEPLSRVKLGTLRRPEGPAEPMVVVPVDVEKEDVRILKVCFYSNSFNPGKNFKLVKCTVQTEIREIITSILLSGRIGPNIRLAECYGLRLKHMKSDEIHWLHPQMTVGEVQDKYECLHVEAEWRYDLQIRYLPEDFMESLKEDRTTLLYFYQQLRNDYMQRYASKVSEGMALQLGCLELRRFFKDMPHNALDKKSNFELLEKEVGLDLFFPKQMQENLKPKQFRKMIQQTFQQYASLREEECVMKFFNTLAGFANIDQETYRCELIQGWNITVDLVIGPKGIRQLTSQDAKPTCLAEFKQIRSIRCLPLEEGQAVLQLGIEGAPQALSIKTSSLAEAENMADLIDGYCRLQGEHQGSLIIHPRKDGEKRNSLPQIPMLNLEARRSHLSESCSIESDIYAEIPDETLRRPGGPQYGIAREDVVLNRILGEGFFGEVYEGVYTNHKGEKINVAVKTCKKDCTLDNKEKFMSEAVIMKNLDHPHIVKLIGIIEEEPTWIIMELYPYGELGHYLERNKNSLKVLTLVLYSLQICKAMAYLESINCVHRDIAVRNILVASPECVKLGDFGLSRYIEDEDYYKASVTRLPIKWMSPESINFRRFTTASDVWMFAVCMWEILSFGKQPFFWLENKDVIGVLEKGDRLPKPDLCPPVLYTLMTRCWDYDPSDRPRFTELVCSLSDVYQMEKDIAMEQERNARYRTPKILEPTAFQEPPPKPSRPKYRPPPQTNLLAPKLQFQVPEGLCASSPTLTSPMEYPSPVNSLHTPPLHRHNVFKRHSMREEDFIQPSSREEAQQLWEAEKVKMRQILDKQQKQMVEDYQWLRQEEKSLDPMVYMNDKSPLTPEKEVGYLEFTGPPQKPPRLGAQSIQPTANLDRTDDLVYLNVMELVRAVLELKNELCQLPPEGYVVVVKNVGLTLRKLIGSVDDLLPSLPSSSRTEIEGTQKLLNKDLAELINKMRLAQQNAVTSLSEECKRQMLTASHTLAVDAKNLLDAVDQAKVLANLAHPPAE
Chain of DAPK1 (P53355 whole entry): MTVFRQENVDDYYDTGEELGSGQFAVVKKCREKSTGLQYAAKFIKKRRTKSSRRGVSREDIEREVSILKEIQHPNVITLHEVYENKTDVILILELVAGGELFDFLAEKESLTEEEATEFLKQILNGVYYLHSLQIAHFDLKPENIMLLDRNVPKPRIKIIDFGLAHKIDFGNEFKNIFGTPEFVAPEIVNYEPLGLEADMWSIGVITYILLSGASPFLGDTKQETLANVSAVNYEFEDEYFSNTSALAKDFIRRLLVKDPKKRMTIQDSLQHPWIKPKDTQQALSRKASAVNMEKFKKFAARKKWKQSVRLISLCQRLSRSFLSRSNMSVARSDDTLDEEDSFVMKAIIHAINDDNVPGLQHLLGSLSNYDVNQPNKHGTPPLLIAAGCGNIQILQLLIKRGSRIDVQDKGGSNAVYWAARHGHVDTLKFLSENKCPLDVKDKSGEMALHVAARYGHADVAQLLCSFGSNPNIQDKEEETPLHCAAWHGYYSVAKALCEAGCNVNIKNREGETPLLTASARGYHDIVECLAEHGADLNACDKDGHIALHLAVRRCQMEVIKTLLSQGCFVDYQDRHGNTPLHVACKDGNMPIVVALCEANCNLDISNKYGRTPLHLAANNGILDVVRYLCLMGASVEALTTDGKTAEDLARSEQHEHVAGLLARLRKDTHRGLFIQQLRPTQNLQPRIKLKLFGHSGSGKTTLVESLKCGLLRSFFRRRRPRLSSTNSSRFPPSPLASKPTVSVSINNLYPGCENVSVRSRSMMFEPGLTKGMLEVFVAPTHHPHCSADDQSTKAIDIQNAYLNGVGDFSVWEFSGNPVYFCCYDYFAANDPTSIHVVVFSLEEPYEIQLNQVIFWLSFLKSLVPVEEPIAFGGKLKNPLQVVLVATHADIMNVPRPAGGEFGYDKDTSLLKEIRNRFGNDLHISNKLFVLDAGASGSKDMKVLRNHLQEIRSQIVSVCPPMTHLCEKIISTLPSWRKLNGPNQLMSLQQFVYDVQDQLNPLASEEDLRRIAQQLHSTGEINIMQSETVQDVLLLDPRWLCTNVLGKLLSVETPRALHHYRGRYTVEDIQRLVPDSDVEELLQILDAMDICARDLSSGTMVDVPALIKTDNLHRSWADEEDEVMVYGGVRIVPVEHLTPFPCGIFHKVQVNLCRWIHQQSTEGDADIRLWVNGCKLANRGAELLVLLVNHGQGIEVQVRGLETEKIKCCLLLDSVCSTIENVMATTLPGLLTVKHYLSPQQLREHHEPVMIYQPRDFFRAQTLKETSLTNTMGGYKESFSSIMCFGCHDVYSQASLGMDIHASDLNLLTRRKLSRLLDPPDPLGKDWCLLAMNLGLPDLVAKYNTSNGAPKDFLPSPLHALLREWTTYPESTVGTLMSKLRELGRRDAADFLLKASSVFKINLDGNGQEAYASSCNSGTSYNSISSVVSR
Chain of PCTK2 (Q00537 whole entry): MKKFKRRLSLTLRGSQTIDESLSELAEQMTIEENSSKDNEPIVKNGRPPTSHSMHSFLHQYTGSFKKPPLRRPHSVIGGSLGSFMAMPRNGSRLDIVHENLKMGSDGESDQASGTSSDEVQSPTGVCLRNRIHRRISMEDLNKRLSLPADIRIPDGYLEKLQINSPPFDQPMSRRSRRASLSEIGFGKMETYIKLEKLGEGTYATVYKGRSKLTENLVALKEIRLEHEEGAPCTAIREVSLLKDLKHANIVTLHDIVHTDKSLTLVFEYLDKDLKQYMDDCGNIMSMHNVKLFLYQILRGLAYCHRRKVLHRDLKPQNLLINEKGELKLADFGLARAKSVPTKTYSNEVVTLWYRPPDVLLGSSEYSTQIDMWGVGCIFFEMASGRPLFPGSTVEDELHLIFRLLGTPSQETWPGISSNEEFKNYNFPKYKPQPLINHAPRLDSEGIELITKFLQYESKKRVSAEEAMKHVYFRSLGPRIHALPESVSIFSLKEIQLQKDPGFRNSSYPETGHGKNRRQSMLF
Chain of RSK3 (Kin.Dom.2-C-terminal) (Q15349 415-672): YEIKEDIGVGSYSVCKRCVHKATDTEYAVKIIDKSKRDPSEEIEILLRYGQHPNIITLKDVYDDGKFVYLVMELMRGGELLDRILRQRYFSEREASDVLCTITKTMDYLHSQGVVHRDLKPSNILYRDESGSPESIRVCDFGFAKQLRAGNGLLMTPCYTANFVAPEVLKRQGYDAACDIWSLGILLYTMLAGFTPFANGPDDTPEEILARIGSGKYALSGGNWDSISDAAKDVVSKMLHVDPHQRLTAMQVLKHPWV

In the case of `COc1ccc(N2C(=O)N(c3c(C)cccc3C)Cc3cnc(Nc4ccc(N5CCN(C)CC5)cc4)nc32)c(OC)c1` [HG-11-136-01], the “KINOMEscan MST3” value (MST3) is reported as 4.6, the “KINOMEscan PRKX” value (PRKX) is reported as 100 and the “KINOMEscan EPHB3” value (EPHB3) is reported as 0. The “KINOMEscan BMPR1A” value (BMPR1A) was 4.6, the “KINOMEscan CLK3” value (CLK3) was 78 and the “KINOMEscan EGFR (L747-E749del, A750P)” value [1] was 0.35. The “KINOMEscan CLK2” value (CLK2) was 35, the “KINOMEscan LCK” value (LCK) was 0.05 and the “KINOMEscan TGFBR2” value (TGFBR2) was 38. For the same compound, the “KINOMEscan YSK1” value (YSK1) was 19, the “KINOMEscan CAMK2G” value (CAMK2G) was 100 and the “KINOMEscan TGFBR1” value (TGFBR1) was 33. The “Enzyme activity at 1 μM (%) SIK1” value (SIK1; 1 μM) was 19.1%, the “SIK1 % ACTIVITY” value (SIK1; compound at 1 μM, approximate Km for ATP) was 19.1% and the “KINOMEscan RSK3 (Kin.Dom.2-C-terminal)” value [2] was 67. For the same compound, the “KINOMEscan MAP4K2” value (MAP4K2) was 0.3, the “KINOMEscan ALK” value (ALK) was 1.6 and the “KINOMEscan CDKL3” value (CDKL3) was 58. For the same compound, the “KINOMEscan IRAK1” value (IRAK1) was 4.4, the “KINOMEscan TEC” value (TEC) was 2.6 and the “KINOMEscan SRC” value (SRC) was 0.15. For the same compound, the “KINOMEscan ERK2” value (ERK2) was 96, the “KINOMEscan DAPK1” value (DAPK1) was 63 and the “KINOMEscan PIK3CA (E545K)” value (PIK3CA (E545K)) was 98. For the same compound, the “KINOMEscan BRSK2” value (BRSK2) was 91, the “KINOMEscan ABL1-nonphosphorylated” value (ABL1-nonphosphorylated) was 0 and the “KINOMEscan GRK7” value (GRK7) was 96. The “KINOMEscan TRKC” value (TRKC) was 71, the “KINOMEscan p38-delta” value (p38-delta) was 100 and the “KINOMEscan FAK” value (FAK) was 24. For the same compound, the “KINOMEscan CDKL2” value (CDKL2) was 14, the “KINOMEscan NEK5” value (NEK5) was 98 and the “KINOMEscan IKK-alpha” value (IKK-alpha) was 99. The “KINOMEscan EPHB4” value (EPHB4) was 0, the “KINOMEscan PCTK2” value (PCTK2) was 91 and the “KINOMEscan WNK1” value (WNK1) was 89. For the same compound, the “KINOMEscan PYK2” value (PYK2) was 15, the “KINOMEscan MEK1” value (MEK1) was 0.55 and the “KINOMEscan MAST1” value (MAST1) was 62. The “KINOMEscan PIK3CA (H1047L)” value (PIK3CA (H1047L)) was 96, the “KINOMEscan FLT3 (K663Q)” value (FLT3 (K663Q)) was 31 and the “KINOMEscan BMX” value (BMX) was 3.

Reference: patent US11725011B2, “Bicyclic urea kinase inhibitors and uses thereof” (The Broad Institute, Inc., priority 2016, dated 2023)
